Measurements taken from PubChem BioAssay (NCI).
Values joined by “and” are separate entries in the source; they are usually repeats but may differ in a detail not shown here. Equal values may be shown once.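 Cells were grown in 96-well plates and exposed to each compound for 48 hours at five concentrations; endpoints were interpolated linearly between bracketing concentrations, or set to the highest concentration if not reached. The concentration for full growth arrest is given as TGI.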

Tests used:
Assay in all cases: DTP human tumour cell line panel, 48 h
MDA-N = test system: MDA-N
SF-268 CNS = test system: SF-268 CNS
MDA-MB-231 breast = test system: MDA-MB-231 breast
PC-3 prostate = test system: PC-3 prostate
SK-MEL-5 melanoma = test system: SK-MEL-5 melanoma
CAKI-1 renal = test system: CAKI-1 renal
RPMI-8226 leukemia = test system: RPMI-8226 leukemia
COLO 205 colon = test system: COLO 205 colon
TK-10 renal = test system: TK-10 renal
M14 melanoma = test system: M14 melanoma

SMILES	TGI (MDA-N)	TGI (SF-268 CNS)	TGI (MDA-MB-231 breast)	TGI (PC-3 prostate)	TGI (SK-MEL-5 melanoma) [µM]	TGI (CAKI-1 renal) [µM]	TGI (RPMI-8226 leukemia) [µM]	TGI (COLO 205 colon) [µM]	TGI (TK-10 renal)	TGI (M14 melanoma) [µM]
Nc1ccc(-c2nc3ccccc3s2)cc1Br	> 100 µM	> 100 µM	> 100 µM	> 100 µM	> 100	> 100	> 100	> 100	> 100 µM	> 100
CN(C)c1ccc(/C=c2/c3cc([N+](=O)[O-])ccc3n3c2cc(-c2ccccc2)[n+]3C)cc1	1.66 µM	2.86 µM	2.75 µM	7.27 µM	1.11	23.4	1.72	1.48	9.32 µM	2.66
C#CCOC(=O)C(N)CCSC (configuration not stated)	> 100 µM	> 100 µM	> 100 µM	> 100 µM	> 100	> 100	> 100	> 100	> 100 µM	> 100
CC1CN=C(c2ccc(COc3ccc(C4=NCC(C)N4)cc3)cc2)N1 (configuration not stated)	> 100 µM	> 100 µM	> 100 µM	> 100 µM	> 100	> 100	> 100	> 100	> 100 µM	> 100
CC(C)c1cccc(C(C)C)c1OS(=O)(=O)NC(=O)OC(C(F)(F)F)C(F)(F)F	> 100 µM	> 100 µM	> 100 µM	> 100 µM	> 100	> 100	44.8	> 100	> 100 µM	64
CC1(C)CC2C(C1=O)C1(C)CCCC2(C)C1=O (configuration not stated)	> 100 µM	> 100 µM	> 100 µM	> 100 µM	> 100	> 100	> 100	> 100	> 100 µM	> 100
O=C(O)CC(O)(C(=O)O)C(O)C(=O)O (configuration not stated)	> 1000 µM	> 1000 µM	> 1000 µM	> 1000 µM	> 1000	> 1000	> 1000	> 1000	> 1000 µM	> 1000
C[N+](C)(N)c1nc(N)c(C#N)c(C#N)c1C#N	> 10 µM	> 10 µM	> 10 µM	> 10 µM	> 10	> 10	> 10	> 10	> 10 µM	> 10
C=C1c2nc3ccccc3n2C=C(c2ccc(OC)cc2)N1c1ccc(OCCN2CCOCC2)cc1	> 100 µM	> 31.9 µM	> 100 µM	> 100 µM	> 100	> 100	9.05	> 57	> 100 µM	> 55.4
O=C(Oc1cccc(Cl)c1)c1cc2cc(CCl)ccc2oc1=O	> 100 µM	> 100 µM	> 100 µM	> 100 µM	33.2	> 100	> 100	45.9	> 100 µM	31.4
COCCNC1CCC2(SCCS2)c2[nH]c3ccccc3c21 (configuration not stated)	57.9 µM	> 100 µM	54.1 µM	> 100 µM	57.4	> 100	41.4	82.5	44.6 µM	30.4
CCCCNC(=S)Nc1nc(C(=O)NNC(=O)c2ccccc2)cs1	39.4 µM	> 100 µM	29 µM	39.7 µM	22.7	39	> 100	27.3	60.6 µM	28.6
OCC(O)C(O)C(O)C(O)/C=N/Nc1nc(O)c(/C=C2\C=Nc3ccccc32)[nH]1 (configuration not stated)	> 100 µM	> 100 µM	> 100 µM	97.5 µM	> 100	> 100	> 100	> 100	> 100 µM	> 100
OC(c1ccccc1)(c1cccnc1)C(O)(c1ccccc1)c1cccnc1 (configuration not stated)	> 100 µM	> 100 µM	> 100 µM	> 100 µM	> 100	> 100	> 100	> 100	> 100 µM	> 100
CN(C)CCn1nc(N)c2nc3cc(C(F)(F)F)ccc3nc21	> 100 µM	> 100 µM	> 100 µM	> 100 µM	> 100	> 100	> 100	> 100	> 100 µM	> 100
OC1c2ccccc2C(O)C2OC12 (configuration not stated)	> 100 µM	> 100 µM	> 100 µM	> 100 µM	> 100	> 100	> 100	> 100	> 100 µM	> 100
CC[C@H](C)C1=C(OC(C)=O)[N@+]2([O-])Oc3ccc(-c4c(OC(C)=O)c(OC(C)=O)c(-c5ccc(OC(C)=O)cc5)c(OC(C)=O)c4OC(C)=O)cc3O[C@]2([C@@H](C)CC)C(=O)N1OC(C)=O	> 50 µM	> 50 µM	> 50 µM	30 µM	22.5	> 50	22.4	15.8	> 50 µM	> 50
C=CCC(CNC(=O)OCc1ccccc1)OC(=O)OCc1ccccc1 (configuration not stated)	> 100 µM	> 100 µM	> 100 µM	> 100 µM	56	> 100	68.1	> 100	> 100 µM	> 100
O=C1c2cc([N+](=O)[O-])sc2C(=O)c2ccsc21	0.378 µM	1.06 µM	1.15 µM	1.8 µM	0.336	2.55	0.751	1.66	1.99 µM	0.663
O=[N+]([O-])c1cc(Cl)ccc1S(=O)(=O)N1CCCc2cc(Cl)ccc21	> 100 µM	> 100 µM	> 100 µM	> 100 µM	> 100	> 100	> 100	> 100	> 100 µM	> 100
Cc1ccc2c(=O)c(-c3n[nH]c(=S)s3)c[nH]c2n1	> 100 µM	> 100 µM	> 100 µM	> 100 µM	> 100	> 100	> 100	> 100	> 100 µM	> 100

SMILES	TGI (MDA-N)	TGI (SF-268 CNS)	TGI (MDA-MB-231 breast)	TGI (PC-3 prostate)	TGI (SK-MEL-5 melanoma) [µM]	TGI (CAKI-1 renal) [µM]	TGI (RPMI-8226 leukemia) [µM]	TGI (COLO 205 colon) [µM]	TGI (TK-10 renal)	TGI (M14 melanoma) [µM]
C=CCN1CCC2(CC1)NC(=O)c1ccccc1O2	> 100 µM	> 100 µM	> 100 µM	> 100 µM	> 100	> 100	> 100	> 100	> 100 µM	> 100
CCC1(O)CC(OC2CC(N(C)C)C(OC3CC(O)C(OC4CCC(=O)C(C)O4)C(C)O3)C(C)O2)c2c(O)c3c(c(O)c2C1C(=O)OC)C(=O)c1cccc(O)c1C3=O (configuration not stated)	0.107 µM and 0.0142 µM	0.32 µM and 0.973 µM	0.28 µM and 0.229 µM	0.252 µM and 0.132 µM	0.0261	0.0098	0.0755	0.124	0.392 µM and 0.211 µM	0.013
CCOC(=O)CC[C@H](N)C(=O)N[C@H](Cc1ccc(N(CCCl)CCCl)cc1)C(=O)OCC	> 43.4 µM	11.3 µM	16.2 µM	17.7 µM	> 100	4.03	> 73.9	4.26	8.51 µM	12.9
O=P1(c2ccccc2)C2=CCC=CC2C(c2ccccc2)N1Cc1ccccc1 (configuration not stated)	38.2 µM	30.9 µM	33.6 µM	27.6 µM	29.8	27	30.5	29	35.4 µM	32.3
CN1C(=O)N(C)C2(CCN(CCCCCCF)CC2)C1=O	> 100 µM	> 100 µM	> 100 µM	> 100 µM	> 100	> 100	> 100	> 100	> 100 µM	> 100
COC(=O)[C@H](CCSC)NC(=O)c1ccc(CNC(=O)/C(C)=C/c2ccccc2)cc1	> 100 µM	70.1 µM	> 100 µM	> 100 µM	> 100	> 100	> 100	> 100	> 100 µM	83.7
CCCCCCCCCCCCCCCCP(=O)([O-])OCC[N+](C)(C)C	30 µM	34.1 µM	35.2 µM	8.66 µM	30	25.4	34.2	20.5	3.51 µM	28.9
O=C1N[C@@H](COc2ccc(C=Nc3ccc(CCc4ccc(N=Cc5ccc(OC[C@@H]6COC(=O)N6)cc5)cc4)cc3)cc2)CO1	> 100 µM	> 100 µM	> 100 µM	> 100 µM	> 100	> 100	> 100	> 100	> 100 µM	> 100
COc1ccccc1N=C1SCCN1C(=S)Nc1ccc(S(=O)(=O)/N=C/N(C)C)cc1	> 100 µM	55.2 µM	> 100 µM	> 100 µM	37	> 100	68.4	> 100	> 100 µM	> 100
CN(C)CCNc1nc2c(no[n+]2[O-])c2ccccc12	91.4 µM	> 100 µM	34.3 µM	89.5 µM	28.4	60.6	> 100	66.7	63.1 µM	30.3
CCOP(=O)(OCC)C(C)(C)OC(=O)NC#N	> 100 µM	> 100 µM	> 100 µM	> 100 µM	> 100	> 100	> 100	> 100	> 100 µM	> 100
CC(=O)N(CN1C(=O)CCC1C(=O)O)c1ccccc1Cl (configuration not stated)	> 100 µM	> 100 µM	> 100 µM	> 100 µM	> 100	> 100	> 100	> 100	> 100 µM	> 100
COc1ccc(C[C@@H]2OC3(C=CC(=O)C=C3)O[C@H]2Cc2ccc(OC)cc2)cc1	1.62 µM	3.07 µM	4.15 µM	3.47 µM	2.94	1.38	0.653	2.79	1.21 µM	2.53
CC(/C=N/NC1=NCCCN1)=N\NC1=NCCCN1	> 100 µM	> 100 µM	> 100 µM	> 100 µM	> 100	> 100	> 100	> 100	> 100 µM	> 100
COc1cccc(-c2cc(=O)c3cc(Cl)cnc3[nH]2)c1	0.0239 µM	> 87.3 µM	> 65.5 µM	> 100 µM	7.33	71.8	> 62.1	7.59	> 89.9 µM	> 9.71
COc1ccccc1NS(=O)(=O)c1ccc2ncn(NS(=O)(=O)c3ccc(Cl)cc3)c(=O)c2c1	> 100 µM	> 100 µM	> 100 µM	> 100 µM	–	> 100	> 100	> 100	> 100 µM	> 100
C=CC(Br)(CBr)CCC(Br)C(C)C (configuration not stated)	6.37 µM	25.7 µM	10.3 µM	19.5 µM	17.7	16.3	4	19.8	10.4 µM	15.3
Cc1nc2c(=O)[nH]c3ccc(Cl)cc3c2o1	> 100 µM	> 100 µM	> 100 µM	> 100 µM	> 100	> 100	> 100	> 100	> 100 µM	> 100
CCOP(=O)(OCC)C(Nc1ccc(F)cc1)c1ccccc1 (configuration not stated)	> 100 µM	> 100 µM	> 100 µM	> 100 µM	> 100	> 100	> 100	> 100	> 100 µM	> 100
COP(C)(=O)C(Cc1c[nH]c2ccccc12)NC(=O)OCc1ccccc1 (configuration not stated)	> 100 µM	> 100 µM	> 100 µM	> 100 µM	> 100	> 100	> 100	> 100	> 100 µM	> 100
Cc1sc2nc3n(c(=O)c2c1C)N=C(c1ccc([N+](=O)[O-])cc1)CS3	> 100 µM	> 100 µM	> 100 µM	> 100 µM	> 100	> 100	> 100	> 100	–	–
